Measured values: US12102644B2, “Compounds and methods of promoting myelination” (Case Western Reserve University, priority 2019, dated 2024)
Entries after “also recorded” stand apart in the source; their conditions may differ. Read-outs that look alike come from different tables or passages of the source. Blank lines part the entries; values can stand above or below the compound they belong to.

Assays:
EBP = molecular target: T1, EBP (Mus musculus, UniProt P70245); experiment: EBP enzymatic assay (GC/MS); type: biochemical; conditions: small molecules 10 μM, zymostenol 25 μM, 2 h
T1 construct: active EBP was obtained from mouse microsomes; from tissue
T1 sequence (P70245 1-230): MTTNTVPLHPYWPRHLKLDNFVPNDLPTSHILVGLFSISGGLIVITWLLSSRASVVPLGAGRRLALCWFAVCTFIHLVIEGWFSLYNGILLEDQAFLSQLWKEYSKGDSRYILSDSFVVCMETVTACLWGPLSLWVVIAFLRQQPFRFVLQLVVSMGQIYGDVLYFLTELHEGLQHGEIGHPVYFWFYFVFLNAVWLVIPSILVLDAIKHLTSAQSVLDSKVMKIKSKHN

rat CYP51 [1] = molecular target: T2, rat CYP51 (Rattus norvegicus, UniProt Q64654); conditions: rat CYP51 enzymatic activity
T2 sequence (Q64654 1-503): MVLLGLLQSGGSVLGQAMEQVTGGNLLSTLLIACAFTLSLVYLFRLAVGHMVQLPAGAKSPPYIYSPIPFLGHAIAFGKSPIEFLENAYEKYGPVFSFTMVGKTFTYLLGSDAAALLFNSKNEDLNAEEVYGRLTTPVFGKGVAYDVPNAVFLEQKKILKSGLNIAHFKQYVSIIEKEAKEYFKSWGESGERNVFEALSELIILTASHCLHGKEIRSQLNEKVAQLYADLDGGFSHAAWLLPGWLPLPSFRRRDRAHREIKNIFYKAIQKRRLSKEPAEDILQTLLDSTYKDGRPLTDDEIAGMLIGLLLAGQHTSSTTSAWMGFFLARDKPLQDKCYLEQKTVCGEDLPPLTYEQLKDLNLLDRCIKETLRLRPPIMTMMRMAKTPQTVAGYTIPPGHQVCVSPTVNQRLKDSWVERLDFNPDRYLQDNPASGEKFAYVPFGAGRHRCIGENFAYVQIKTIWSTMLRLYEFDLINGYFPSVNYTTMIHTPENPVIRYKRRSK

[2] = system: mouse epiblast stem cell-derived OPCs; experiment: In vitro OPC differentiation assay (percentage of MBP+ oligodendrocytes, high-content imaging); type: cell-based; conditions: for formation of MBP+ oligodendrocytes in combination with ketoconazole: co-treatment with ketoconazole 2.5 μM
Experimental: To rigorously assess effects of small molecule and genetic treatments on OPCs, all treatments were assayed in two batches of epiblast stem cell-derived OPCs, and key results were confirmed using mouse primary OPCs. OPCs were generated from two separate EpiSC lines, EpiSC5 (giving rise to OPC-5 OPCs) and 12901 (giving rise to OPC-1 OPCs). EpiSC-derived OPCs were obtained using in vitro differentiation protocols and culture conditions described previously. To ensure uniformity throughout all in vitro screening experiments, EpiSC-derived OPCs were sorted to purity by fluorescence activated cell sorting at passage five with conjugated CD 140a-APC (eBioscience, 17-1401; 1:80) and NG2-AF488 (Millipore, AB[…]; 1:100) antibodies. Sorted batches of OPCs were expanded and frozen down in aliquots. OPCs were thawed into growth conditions for one passage before use in further assays. Cultures were regularly tested and shown to be mycoplasma free. EpiSC-derived OPCs were grown and expanded in poly-ornithine (PO) and laminin-coated flasks with growth medium (DMEM/F12 supplemented with N2-MAX (R&D Systems), B-27 (ThermoFisher), GlutaMax (Gibco), FGF2 ([…], R&D systems, 233-FB-025) and PDGF-AA ([…], R&D systems, 233-AA-050) before harvesting for plating. The cells were seeded onto poly-D-[…]-well CellCarrier plates (PerkinElmer) coated with laminin (Sigma, L2020; 15 μg/ml) using multi-channel pipet. For the experiment, 800,000 cells/mL stock in differentiation medium (DMEM/F12 supplemented with N2-MAX and B-27) was prepared and stored on ice for 2 h. Then, 40,000 cells were seeded per well in differentiation medium and allowed to attach for 30 min before addition of drug. For dose-response testing of all molecules except sterols, a 1000× compound stock in dimethyl sulphoxide (DMSO) was added to assay plates with 0.1 μL solid pin multi-blot replicators (V & P Scientific; VP 409), resulting in a final primary screening concentration of 1×. Sterols were added to cells as an ethanol solution (0.2% final ethanol concentration). Positive control wells (ketoconazole, 2.5 μM) and DMSO vehicle controls were included in each assay plate. Cells were incubated under standard conditions (37° C., 5% CO2) for 3 days and fixed with 4% paraformaldehyde (PFA) in phosphate buffered saline (PBS) for 20 min. Fixed plates were washed with PBS (200 μL per well) twice, permeabilized with 0.1% Triton X-100 and blocked with 10% donkey serum (v/v) in PBS for 40 min. Then, cells were labelled with MBP antibodies (Abcam, ab7349; 1:200) for 16 h at 4° C. followed by detection with Alexa Fluor conjugated secondary antibodies (1:500) for 45 min. Nuclei were visualized by DAPI staining (Sigma; 1 μg/ml). During washing steps, PBS was added using a multi-channel pipet and aspiration was performed using Biotek EL406 washer dispenser (Biotek) equipped with a 96-well aspiration manifold. Plates were imaged on the Operetta High Content Imaging and Analysis system (PerkinElmer) and a set of 6 fields captured from each well resulting in an average of 1200 cells being scored per well. Analysis (PerkinElmer Harmony and Columbus software) began by identifying intact nuclei stained by DAPI; that is, those traced nuclei that were larger than 300 μm^2 in surface area. Each traced nucleus region was then expanded by 50% and cross-referenced with the […] (MBP) stain to identify oligodendrocyte nuclei, and from this the percentage of oligodendrocytes was calculated. In some experiments, the total process length of MBP^+ oligodendrocytes was calculated as previously described.

[3] = system: sterol levels in OPCs (cholesterol biosynthesis pathway); experiment: GC/MS-based sterol profiling in OPCs; type: cell-based, mouse
rat CYP51 [4] = molecular target: T2, rat CYP51; experiment: biochemical
[5] = 72 h, differentiation-permissive conditions

Compound: OCCOCCN1CCN(C(c2ccccc2)c2ccc(Cl)cc2)CC1 (centres unmarked) [hydroxyzine, Hydroxyzine]
inhibition of EBP enzymatic activity (EBP): directly inhibiting EBP enzymatic activity

Compound: CC(=O)N1CCN(c2ccc(OC[C@@H]3CO[C@](Cn4ccnc4)(c4ccc(Cl)cc4Cl)O3)cc2)CC1 (stereo in doubt) [R-trans-Ketoconazole]
inhibition of mammalian CYP51 in vitro (rat CYP51 [1]): strikingly less effective at inhibiting mammalian CYP51

Compound: Cc1cc(C)c(CNC(=O)c2cc(-c3ccc(CN4CCOCC4)cc3)cc3c2cnn3C2CCCC2)c(=O)[nH]1 [EPZ005687]
formation of MBP+ oligodendrocytes from OPCs [2, 5]: robustly enhanced oligodendrocyte formation
accumulation of sterol intermediates in OPCs (enzyme inhibition in OPCs, e.g. EBP) ([3]; 24 h treatment): uniquely caused accumulation of zymosterol and zymostenol in OPCs
inhibition of EBP enzymatic activity (EBP): directly inhibiting EBP enzymatic activity

Compound: CN1[C@@H]2CC[C@H]1C[C@@H](OC(c1ccccc1)c1ccccc1)C2 [benztropine, Benztropine]
formation of MBP+ oligodendrocytes in combination with ketoconazole ([2]; 72 h): did not enhance differentiation above levels seen for ketoconazole alone
accumulation of sterol intermediates in OPCs (enzyme inhibition in OPCs, e.g. EBP) ([3]; 24 h treatment): induced accumulation of zymostenol and zymosterol and decreased basal sterol levels
inhibition of EBP enzymatic activity (EBP): clear inhibition

Compound: CC(C)CCC[C@@H](C)[C@H]1CC[C@H]2C3=C(CC[C@]12C)[C@@]1(C)CC[C@H](O)C(C)(C)[C@@H]1CC3 [MAS-414]
formation of MBP+ oligodendrocytes from OPCs [2, 5]: enhanced oligodendrocyte formation; also recorded: optimal efficacy and potency among all canonical cholesterol biosynthesis intermediates evaluated

Compound: methyl-β-cyclodextrin
formation of MBP+ oligodendrocytes from OPCs [2, 5]: had no effect on oligodendrocyte formation
cholesterol levels in OPCs ([3]; methyl β-cyclodextrin 1 mM for 30 min): reductions in cholesterol levels comparable to pathway inhibitor treatment

Compound: CC(C)=CCC[C@@H](C)[C@H]1CC[C@@]2(C)C3=C(CC[C@]12C)[C@@]1(C)CC[C@H](O)C(C)(C)[C@@H]1CC3 [lanosterol, Lanosterol]
formation of MBP+ oligodendrocytes from OPCs [2, 5]: enhanced formation of MBP^+ oligodendrocytes in a dose-responsive fashion

IC50 (rat CYP51 [4]): 300 to 700 nM
Compound: Clc1ccccc1C(c1ccccc1)(c1ccccc1)n1ccnc1 [clotrimazole, Clotrimazole]

Compound: CC(C)CCC[C@@H](C)[C@H]1CC[C@H]2[C@@H]3CC=C4C[C@@H](O)CC[C@]4(C)[C@H]3CC[C@]12C [cholesterol, Cholesterol]
formation of MBP+ oligodendrocytes from OPCs [2, 5]: ineffective; also recorded: had no effect on OPCs

total cell number (DAPI+ nuclei) ([2]; 3 d differentiation assay): little impact
Compound: C=CCN(C)CCCCCCOc1ccc(C(=O)c2ccc(Br)cc2)c(F)c1 [Ro 48-8071]
formation of MBP+ oligodendrocytes from OPCs [2, 5]: little impact
formation of MBP+ oligodendrocytes in combination with ketoconazole ([2]; 72 h): completely suppressed ketoconazole's pro-myelinating effects
reduction in lanosterol levels relative to ketoconazole alone ([3]; co-treatment ketoconazole 2.5 μM + Ro 48-8071 11 nM, 24 h): 90%

Compound: N[C@@H](Cc1cc(I)c(Oc2ccc(O)c(I)c2)c(I)c1)C(=O)O [liothyronine, Liothyronine]
formation of oligodendrocytes in combination with liothyronine ([2]; liothyronine 3 μM combined with sterol-modulating treatments, 72 h): additive effects on oligodendrocyte formation
accumulation of sterol intermediates in OPCs (enzyme inhibition in OPCs, e.g. EBP) [3]: minimal effects on sterol levels

inhibition of mammalian CYP51 in vitro (rat CYP51 [1]): did not inhibit mammalian CYP51 in vitro
Compound: OC(Cn1cncn1)(Cn1cncn1)c1ccc(F)cc1F [fluconazole, Fluconazole]

Compound: CN1CCC[C@@H]1CCO[C@](C)(c1ccccc1)c1ccc(Cl)cc1 [clemastine, Clemastine]
formation of MBP+ oligodendrocytes in combination with ketoconazole ([2]; 72 h): did not enhance differentiation above levels seen for ketoconazole alone

Compound: OCCOc1ccc(/C(=C(/CCCl)c2ccccc2)c2ccccc2)cc1 [ospemifine, Ospemifene]
formation of MBP+ oligodendrocytes from OPCs [2]: had no effect on OPC differentiation
accumulation of sterol intermediates in OPCs (enzyme inhibition in OPCs, e.g. EBP) [3]: did not inhibit EBP

Compound: CC(=O)N1CCN(c2ccc(OC[C@H]3CO[C@@](Cn4ccnc4)(c4ccc(Cl)cc4Cl)O3)cc2)CC1 (stereo in doubt) [S-trans-Ketoconazole]
inhibition of mammalian CYP51 in vitro (rat CYP51 [1]): strikingly less effective at inhibiting mammalian CYP51

Compound: CC(C)=CCC[C@@H](C)[C@H]1CC[C@H]2C3=C(CC[C@]12C)[C@@]1(C)CC[C@H](O)C(C)(C)C1CC3 (some centres unmarked) [T-MAS]
formation of MBP+ oligodendrocytes from OPCs [2, 5]: enhanced oligodendrocyte formation

Compound: CC(C)CCC[C@@H](C)[C@H]1CC=C2C3=C(CC[C@@]21C)[C@@]1(C)CC[C@H](O)C(C)(C)[C@@H]1CC3 [MAS-412]
formation of MBP+ oligodendrocytes from OPCs [2, 5]: enhanced oligodendrocyte formation; also recorded: optimal efficacy and potency among all canonical cholesterol biosynthesis intermediates evaluated

sterol profile in OPCs at the screening dose (enzyme targeted) ([3]; 2 μM, 24 h): targeted CYP51
Compound: C[C@]12CC[C@@H]3c4ccc(O)cc4C[C@@H](CCCCCCCCC[S+]([O-])CCCC(F)(F)C(F)(F)F)[C@H]3[C@@H]1CC[C@@H]2O (some centres unmarked) [fulvestrant, Fulvestrant]

Compound: CC(C)CCC[C@@H](C)[C@H]1CC[C@H]2C3=C(CC[C@]12C)[C@@]1(C)CC[C@H](O)CC1=CC3 [8,9-dehydrocholesterol]
formation of MBP+ oligodendrocytes from OPCs [2, 5]: robustly enhanced oligodendrocyte formation

Compound: CC(C)CCC[C@@H](C)[C@H]1CC=C2C3=C(CC[C@@]21C)[C@@]1(C)CC[C@H](O)C[C@@H]1CC3 [14-dehydrozymostenol, cholesta-8,14-dien-j-ol]
formation of MBP+ oligodendrocytes from OPCs [2, 5]: enhanced the formation of MBP^+ oligodendrocytes

Compound: CC(C)CCC[C@@H](C)[C@H]1CC[C@H]2C3=C(CC[C@]12C)[C@@]1(C)CC[C@H](O)C[C@@H]1CC3 [zymostenol, Zymostenol]
formation of MBP+ oligodendrocytes from OPCs [2, 5]: enhanced the formation of MBP^+ oligodendrocytes; also recorded: enhanced oligodendrocyte formation

Compound: CC(C)=CCC[C@@H](C)[C@H]1CC=C2C3=C(CC[C@@]21C)[C@@]1(C)CC[C@H](O)C(C)(C)[C@@H]1CC3 [FF-MAS, 4,4-dimethyl-5α-cholesta-8,14,24-trien-3β-ol]
formation of MBP+ oligodendrocytes from OPCs [2, 5]: enhanced oligodendrocyte formation; also recorded: maximally potent enhancers of oligodendrocyte formation among the 8,9-unsaturated sterols tested

accumulation of sterol intermediates in OPCs (enzyme inhibition in OPCs, e.g. EBP) ([3]; 24 h treatment): minimal effects on sterol levels
Compound: C=C(c1ccc(C(=O)O)cc1)c1cc2c(cc1C)C(C)(C)CCC2(C)C [bexarotene, Bexarotene]

accumulation of sterol intermediates in OPCs (enzyme inhibition in OPCs, e.g. EBP) ([3]; 24 h treatment): inhibited EBP
Compound: CN(C)CCOc1ccc(/C(=C(/CCCl)c2ccccc2)c2ccccc2)cc1 [toremifene, Toremifene]
formation of MBP+ oligodendrocytes from OPCs [2, 5]: enhanced MBP^+ oligodendrocyte generation over a wide dose range
